What was measured:
[1] = tested on: EB2 (MAPRE2) phosphorylation at phospho-Serine 222; assay: Western blot of EB2 phosphorylation in brain tissue of CDKL5-deficient mice; conditions: 10 days
[2] = tested on: phosphorylation of key synaptic proteins, including EB2 (MAPRE2); assay: Neuronal cultures derived from CDKL5-deficient models; type: cell-based
CDKL5 Het female mice = assay: Seizure monitoring (video and EEG) in CDKL5 Het female mice; type: in vivo; conditions: 30 mg/kg/day in drinking water, treated vs untreated controls
Text: A p-value of <0.05 was considered statistically significant.

[3] = 1:10 solution of DMSO:PBS (pH 7.2); 'believed to be approximately'; cited from earlier work
CDKL5-deficient mice [4] = assay: Marble burying test
[5] = tested on: pediatric patients diagnosed with CDKL5 disorder; assay: Prospective open-label clinical trial in pediatric patients with CDKL5 disorder; type: in vivo, human
Description: For the clinical trial, a prospective, open-label study was conducted between Aug. 1, 2023, and May 1, 2024, to evaluate the efficacy of allopurinol in pediatric patients diagnosed with CDKL5 disorder. The trial enrolled eight patients, aged 2 to 10 years, with a confirmed diagnosis of CDKL5 disorder and ongoing epilepsy that was resistant to conventional anti-epileptic drugs. Patients were required to have a stable seizure regimen for at least four weeks prior to participation. Those with a history of severe allergic reactions to allopurinol or other contraindicating medical conditions were excluded from the study. All patients were treated with allopurinol as an adjunct therapy to their existing anti-epileptic drug regimen, with the starting dose set at 10 mg/kg/day, administered orally in divided doses (twice daily, BID). The dosage was adjusted based on individual tolerability, and all treatment was closely supervised by a pediatric neurologist specializing in seizure disorders. Seizure frequency and severity were assessed at baseline and then at 4-week intervals throughout the 9-month study period. The primary endpoint of the study was the reduction in the frequency of major motor seizures, which was assessed using patient diaries and caregiver reports. Secondary endpoints included the severity of seizures (measured by the Modified Rankin Scale), overall neurological improvement, and quality of life, evaluated using the CDKL5 Disorder Disease-Specific Quality of Life (CDKL5-QoL) questionnaire. Statistical analysis was performed using paired t-tests to compare seizure frequency data between baseline and post-treatment periods, with a significance level set at p<0.05.

[6] = tested on: CDKL2 and GluN2B subunits in the hippocampal and cortical regions; assay: Histological / immunohistochemical analysis of brain tissue of CDKL5 Het mice; type: in vivo; conditions: treated animals, 30 mg/kg/day
Description: In addition to the clinical trial, a preclinical animal study was conducted using a mouse model of CDKL5 disorder (CDKL5 Het female mice). A total of eight mice were included in the study, with four receiving treatment and four serving as untreated controls. All mice were housed under standard laboratory conditions with a 12-hour light/dark cycle and ad libitum access to food and water. The treatment protocol involved the oral administration of allopurinol dissolved in drinking water at a target dose of 30 mg/kg/day. The solution was prepared in phosphate-buffered saline (PBS) with a concentration of 0.1 mg/mL allopurinol in a 1:10 solution of dimethyl sulfoxide (DMSO):PBS (pH 7.2). Control animals received an identical solution without allopurinol. Seizure activity was monitored daily throughout the study, with seizure severity and duration recorded using both video and electroencephalogram assessments. At the end of the study, brain tissue from both treated and untreated animals was collected for histological analysis, specifically to assess the expression of CDKL2 and GluN2B subunits in the hippocampal and cortical regions. Immunohistochemical staining was used to visualize the localization and abundance of these proteins. Data from the seizure monitoring were analyzed using an unpaired t-test, and histological data were quantified using image analysis software. […]

[7] = tested on: patient with CDKL5 deficiency disorder (CDD); assay: Off-label allopurinol treatment of a pediatric patient with CDD (case); type: in vivo, human
Text: CDD is a severe neurodevelopmental disorder characterized by treatment-resistant epilepsy, profound developmental delays, and significant motor impairments.
The patient presented with severe developmental delays since birth and had never met motor or speech milestones. […] The patient also experienced frequent, uncontrolled seizures despite being on a ketogenic diet and receiving physical, occupational, speech, and vision therapies. Their seizures were refractory to multiple anti-epileptic drugs (AEDs), including Keppra, Epidiolex, Soticlestat, Clonazepam, Sabril, Phenobarbital, and Oxcarbazepine.
Baseline assessments conducted prior to treatment initiation included a review of medical history, physical examination, laboratory tests, and functional evaluations.
Allopurinol was prescribed as an adjunct therapy to the patient's existing seizure management regimen without modifications to their ongoing AED treatments or dietary plan. The treatment protocol involved administering allopurinol at a dose of 100 mg per day, divided into two doses of 50 mg with lunch and 50 mg with dinner. The patient's progress was monitored over a 24-week period, unless adverse events necessitated an adjustment or discontinuation of the treatment. Caregivers maintained a daily diary to document seizure frequency, duration, and type, as well as changes in behavior, communication attempts, motor abilities, urine output, and general health.
Clinical assessments were conducted every four weeks, either virtually or in-person, to monitor safety and efficacy. Laboratory tests were performed every six weeks to evaluate uric acid levels, urinalysis, complete blood count (“CBC”), blood sugar levels, and other relevant indicators. EEG assessments were conducted at baseline, at eight-week intervals, and at the end of the study to evaluate changes in seizure activity and brain function. Regular evaluations by a pediatric neuro-ophthalmologist were included to assess visual and neurological health.
During the study, therapeutic interventions such as speech therapy, physical therapy, and the use of augmentative and alternative communication (AAC) devices were continued. Specific goals included improving functional communication through AAC, enhancing motor control, and increasing engagement with therapy activities. Progress in these areas was tracked alongside clinical outcomes to assess the comprehensive impact of allopurinol on the patient's quality of life.
At the time of treatment initiation, the patient weighed 18 kg. […] The end-of-study assessment included a final medical evaluation, EEG, laboratory tests, and a review of therapy outcomes to measure the safety and efficacy of allopurinol as a treatment for CDD.

CDKL2 = assay: qPCR of CDKL2 expression in the treated patient; type: in vivo, human
CDKL5-deficient mice [8] = assay: Hind limb clasping test; type: in vivo; conditions: Het CDKL5-deficient mice before vs after treatment, 5 and 10 days oral (FIG. 9)
Description: The hind limb clasping test was performed to assess motor function and neurological impairments in CDKL5-deficient mouse models before and after treatment with allopurinol. […] Mice were suspended by their tails for a duration of 2 minutes, and hind limb retraction behavior (referred to as clasping) was recorded. Video recordings were analyzed to determine total clasping time during the test. Each mouse was evaluated using a standardized scoring system based on the severity of hind limb clasping behavior: • 0. No limb clasping observed. • 1.
Testing was conducted at baseline (pre-treatment) and at 5 and 10 days following oral administration of allopurinol. The hind limb clasping scores were averaged for each group, and the results were analyzed to assess changes in motor impairments following treatment.

[9] = 100 mg per day, 24-week study period

## Oc1ncnc2[nH]ncc12 [allopurinol]
[1]; Het female mice brain, 30 mg/kg/day, vs untreated controls, not statistically significant (FIG. 2)
  phosphorylated EB2 isoforms 1 and 2 at ps222: trend towards increased phosphorylation
[1]; Het female mice brain, 30 mg/kg/day, did not reach statistical significance (FIG. 3)
  phosphorylated EB2 isoform 3 at ps222: trend toward increased phosphorylation
[1]; KO male and Het female mice, 30 mg/kg/day in drinking water
  EB2 phosphorylation levels: increased EB2 phosphorylation levels
[2]
  phosphorylation of key synaptic proteins, including EB2 (MAPRE2): increased phosphorylation
CDKL5 Het female mice
  reduction in seizure duration: 65%
  reduction in seizure severity: 72.5%
[3]
  solubility: approximately 0.1 mg/ml
CDKL5-deficient mice [4]; Het mice treated vs untreated Het mice, 30 mg/kg/day oral (FIG. 8)
  marble burying capacity: improvement in marble burying capacity
CDKL5-deficient mice [4]; inferred from the behavioral findings in CDKL5-deficient mice
  crossing of the blood brain barrier: crosses the blood brain barrier
[5]; 10 mg/kg/day
  patients demonstrating a decrease in seizure severity by at least one grade (Modified Rankin Scale): 75 % of patients
  patients reporting improvements in sleep patterns, motor skills, and cognitive function (CDKL5-QoL): 87.5 % of patients
[5]; clinical trial conclusions
  speech and motor delays: did not show marked improvements
[5]; eight patients aged 2 to 10 years, 10 mg/kg/day oral BID adjunct, 9 months, baseline on average 12 times per week
  mean reduction in major motor seizures: 63.2%
[6]
  CDKL2 expression in the hippocampal and cortical regions: notable increase in CDKL2 expression
  GluN2B subunit mislocalization: partially corrected
[7]; 100 mg per day adjunct, with a reduction in epileptic discharges
  EEG background activity: marked improvement
[7]; [9]
  adverse effects: No adverse effects were reported
  tolerability: well tolerated
[7]; 3 months after treatment, before treatment 1, lower desirable
  CDKL5 Severity Scale Part 3 (Caregiver Report): 0
[7]; 3 months after treatment, before treatment 2, higher desirable
  CDKL5 Severity Scale Part 6 (Motor Skills): 4
[7]; 3 months after treatment, before treatment 25, lower desirable
  CDKL5 Severity Scale Part 4 (Clinician Report): 25
[7]; 3 months after treatment, before treatment 29, lower desirable
  CDKL5 Severity Scale Part 2 (Seizure Activity): 29
[7]; 3 months after treatment, before treatment 32, lower desirable
  CDKL5 Severity Scale Part 1 (General Health): 21
[7]; 3 months after treatment, before treatment 104
  CDKL5 Severity Scale Total Score: 69
[7]; 3 months after treatment, before treatment −1, higher desirable
  CDKL5 Severity Scale Part 5 (Behavioral Skills): 8
[7]; person, 100 mg per day adjunct, after 3 months
  seizure status: completely seizure-free
[7]; qualitative observational data
  quality of life (observational): reduced sleep disturbances, improved saliva control, and decreased caregiver burden
[7]; therapist and caregiver observation
  cognitive and motor functions: notable gains in cognitive and motor functions
CDKL2; control group mean 5.44307×10^−6 (±2.26749×10^−6)
  patient's CDKL2 expression level: 1.7356×10^−5 (±1.302×10^−6)
CDKL2; treated patient compared to healthy donor controls
  increase in the expression of CDKL2 vs healthy donor controls: 3 fold
CDKL5-deficient mice [8]
  hind limb clasping behavior: significant reduction in hind limb clasping behavior

— patent US20250235457A1, “METHODS AND COMPOSITIONS FOR TREATING CDKL5 DISORDER USING ALLOPURINOL” (priority 2024, published 2025)
